The supplement of paper PMC10331698
± gives the standard deviation of the averaged measurements.

Experiments:
Experiment in all cases: level (log10 ratio to DMSO vehicle control); higher = higher biomarker level / cell amount than vehicle control
Settings in all cases: in DMSO
[1] = compound: O=C(O)C(F)(F)C(F)(F)C(F)(F)C(=O)O [Hexafluoroglutaric acid]
Procedure: (§1)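 BioMAP Diversity Plus panel of 12 human primary cell co-culture systems (3C, 4H, LPS, SAg, BT, BF4T, BE3C, CASM3C, HDF3CGF, KF3CT, MyoF, Mphg). Compounds were added 1 h before stimulation and left for 24 h (MyoF 48 h; BT 72 h for soluble read-outs or 6 d for IgG). Biomarkers were read by ELISA, cytotoxicity by SRB, PBMC viability and proliferation by Alamar Blue. Each well value was divided by the mean of 8 DMSO control wells on the same plate and log10 transformed; duplicate blinded samples were tested at 4 concentrations.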

[2] = compound: O=S(=O)(O)C(F)(F)C(F)(F)C(F)(F)C(F)(F)C(F)(F)C(F)(F)C(F)(F)C(F)(F)F [Potassium perfluorooctanesulfonate]
Procedure: as §1

[3] = compound: O=C(O)C(F)(F)C(F)(F)C(F)(F)C(F)(F)C(F)(F)F [Perfluorohexanoic acid]
Procedure: as §1

[4] = compound: O=S(=O)(O)C(F)(F)C(F)(F)C(F)(F)C(F)(F)F [Perfluorobutanesulfonic acid]
Procedure: as §1

[5] = compound: FC(F)(F)C(F)(F)C(F)(F)C(F)(F)C(F)(F)C(F)(F)C(F)(F)CCI [1-Iodo-1H,1H,2H,2H-perfluorononane]
Procedure: as §1

[6] = compound: O=S(=O)(O)C(F)(F)C(F)(F)C(F)(F)C(F)(F)C(F)(F)C(F)(F)C(F)(F)C(F)(F)F [Perfluorooctanesulfonic acid]
Procedure: as §1

[7] = compound: O=P(O)(O)CCC(F)(F)C(F)(F)C(F)(F)C(F)(F)C(F)(F)C(F)(F)C(F)(F)C(F)(F)F [((Perfluorooctyl)ethyl)phosphonic acid]
Procedure: as §1

## HDF3CGF:CD54/ICAM-1
[1]; 6700 nM
  level (log10): 0.001 ± 0.018
[1]; 20000 nM
  level (log10): 0.0035 ± 0.013
[1]; 60000 nM
  level (log10): 0.004 ± 0.016
[2]; 6700 nM
  level (log10): -0.0015 ± 0.0064
[2]; 20000 nM
  level (log10): -0.002 ± 0.014
[2]; 60000 nM
  level (log10): -0.0525 ± 0.012
[3]; 6700 nM
  level (log10): -0.009 ± 0.013
[3]; 20000 nM
  level (log10): -0.017 ± 0.013
[3]; 60000 nM
  level (log10): -0.019 ± 0.037
[4]; 6700 nM
  level (log10): -0.009 ± 0.016
[4]; 20000 nM
  level (log10): -0.0145 ± 0.0021
[4]; 60000 nM
  level (log10): 0.003 ± 0.011
[5]; 6700 nM
  level (log10): -0.0105 ± 0.016
[5]; 20000 nM
  level (log10): 0.0095 ± 0.0035
[6]; 6700 nM
  level (log10): -0.025 ± 0.013
[6]; 20000 nM
  level (log10): -0.0105 ± 0.00071
[6]; 60000 nM
  level (log10): -0.033 ± 0.014
[7]; 6700 nM
  level (log10): -0.009 ± 0.0099
[7]; 20000 nM
  level (log10): -0.0235 ± 0.015
[7]; 60000 nM
  level (log10): -0.0625 ± 0.028

## HDF3CGF:CD106/VCAM-1
[1]; 6700 nM
  level (log10): -0.045 ± 0.0071
[1]; 20000 nM
  level (log10): -0.0195 ± 0.071
[1]; 60000 nM
  level (log10): -0.05 ± 0.12
[2]; 6700 nM
  level (log10): -0.032 ± 0.027
[2]; 20000 nM
  level (log10): -0.0925 ± 0.018
[2]; 60000 nM
  level (log10): -0.281 ± 0.026
[3]; 6700 nM
  level (log10): -0.043 ± 0.04
[3]; 20000 nM
  level (log10): -0.008 ± 0.023
[3]; 60000 nM
  level (log10): -0.0145 ± 0.086
[4]; 6700 nM
  level (log10): -0.02 ± 0.013
[4]; 20000 nM
  level (log10): -0.01 ± 0.0014
[4]; 60000 nM
  level (log10): -0.025 ± 0.058
[5]; 6700 nM
  level (log10): -0.0925 ± 0.013
[5]; 20000 nM
  level (log10): -0.115 ± 0.018
[6]; 6700 nM
  level (log10): -0.043 ± 0.03
[6]; 20000 nM
  level (log10): -0.089 ± 0.0057
[6]; 60000 nM
  level (log10): -0.21 ± 0.083
[7]; 6700 nM
  level (log10): 0.098 ± 0.0028
[7]; 20000 nM
  level (log10): -0.006 ± 0.0085
[7]; 60000 nM
  level (log10): -0.145 ± 0.012

## HDF3CGF:CXCL8/IL-8
[1]; 6700 nM
  level (log10): -0.005 ± 0.013
[1]; 20000 nM
  level (log10): -0.0005 ± 0.0064
[1]; 60000 nM
  level (log10): -0.0015 ± 0.0035
[2]; 6700 nM
  level (log10): -0.007 ± 0.0085
[2]; 20000 nM
  level (log10): -0.0065 ± 0.0035
[2]; 60000 nM
  level (log10): 0.004 ± 0.013
[3]; 6700 nM
  level (log10): -0.003 ± 0.0057
[3]; 20000 nM
  level (log10): 0.006 ± 0.0014
[3]; 60000 nM
  level (log10): 0.005 ± 0.0071
[4]; 6700 nM
  level (log10): 0.0025 ± 0.0078
[4]; 20000 nM
  level (log10): -0.002 ± 0.0057
[4]; 60000 nM
  level (log10): -0.0025 ± 0.0021
[5]; 6700 nM
  level (log10): 0.002 ± 0.0014
[5]; 20000 nM
  level (log10): 0.0165 ± 0.019
[6]; 6700 nM
  level (log10): -0.017 ± 0.0057
[6]; 20000 nM
  level (log10): -0.014 ± 0.0042
[6]; 60000 nM
  level (log10): 0.0055 ± 0.015
[7]; 6700 nM
  level (log10): -0.0065 ± 0.022
[7]; 20000 nM
  level (log10): -0.005 ± 0.0057
[7]; 60000 nM
  level (log10): -0.0485 ± 0.011

## HDF3CGF:CXCL9/MIG
[1]; 6700 nM
  level (log10): -0.013 ± 0.014
[1]; 20000 nM
  level (log10): -0.025 ± 0.011
[1]; 60000 nM
  level (log10): -0.005 ± 0.013
[2]; 6700 nM
  level (log10): -0.024 ± 0.024
[2]; 20000 nM
  level (log10): -0.017 ± 0.02
[2]; 60000 nM
  level (log10): -0.116 ± 0.04
[3]; 6700 nM
  level (log10): 0.004 ± 0.0099
[3]; 20000 nM
  level (log10): 0.001 ± 0.0099
[3]; 60000 nM
  level (log10): -0.019 ± 0.034
[4]; 6700 nM
  level (log10): -0.01 ± 0.0085
[4]; 20000 nM
  level (log10): -0.0145 ± 0.0092
[4]; 60000 nM
  level (log10): -0.0035 ± 0.005
[5]; 6700 nM
  level (log10): -0.035 ± 0.0071
[5]; 20000 nM
  level (log10): -0.0875 ± 0.049
[6]; 6700 nM
  level (log10): -0.011 ± 0.013
[6]; 20000 nM
  level (log10): -0.0085 ± 0.029
[6]; 60000 nM
  level (log10): -0.0595 ± 0.0064
[7]; 6700 nM
  level (log10): 0.102 ± 0.017
[7]; 20000 nM
  level (log10): 0.0505 ± 0.018
[7]; 60000 nM
  level (log10): -0.0155 ± 0.061

## HDF3CGF:CXCL10/IP-10
[1]; 6700 nM
  level (log10): 0.0035 ± 0.021
[1]; 20000 nM
  level (log10): -0.008 ± 0.0071
[1]; 60000 nM
  level (log10): -0.011 ± 0.037
[2]; 6700 nM
  level (log10): -0.0815 ± 0.03
[2]; 20000 nM
  level (log10): -0.131 ± 0.06
[2]; 60000 nM
  level (log10): -0.313 ± 0.044
[3]; 6700 nM
  level (log10): -0.0135 ± 0.023
[3]; 20000 nM
  level (log10): -0.0215 ± 0.0035
[3]; 60000 nM
  level (log10): -0.0235 ± 0.013
[4]; 6700 nM
  level (log10): -0.0075 ± 0.0078
[4]; 20000 nM
  level (log10): -0.0105 ± 0.005
[4]; 60000 nM
  level (log10): -0.0195 ± 0.0021
[5]; 6700 nM
  level (log10): -0.0265 ± 0.0035
[5]; 20000 nM
  level (log10): -0.0645 ± 0.03
[6]; 6700 nM
  level (log10): -0.0405 ± 0.036
[6]; 20000 nM
  level (log10): -0.113 ± 0.039
[6]; 60000 nM
  level (log10): -0.259 ± 0.054
[7]; 6700 nM
  level (log10): 0.077 ± 0.0014
[7]; 20000 nM
  level (log10): 0.0255 ± 0.005
[7]; 60000 nM
  level (log10): -0.0375 ± 0.005

## HDF3CGF:CXCL11/I-TAC
[1]; 6700 nM
  level (log10): 0.014 ± 0.0014
[1]; 20000 nM
  level (log10): -0.011 ± 0.072
[1]; 60000 nM
  level (log10): -0.0115 ± 0.061
[2]; 6700 nM
  level (log10): 0.0005 ± 0.019
[2]; 20000 nM
  level (log10): -0.0375 ± 0.015
[2]; 60000 nM
  level (log10): -0.135 ± 0.0028
[3]; 6700 nM
  level (log10): 0.0045 ± 0.005
[3]; 20000 nM
  level (log10): 0.0005 ± 0.021
[3]; 60000 nM
  level (log10): -0.021 ± 0.031
[4]; 6700 nM
  level (log10): -0.0235 ± 0.00071
[4]; 20000 nM
  level (log10): 0.005 ± 0.0028
[4]; 60000 nM
  level (log10): -0.005 ± 0.0014
[5]; 6700 nM
  level (log10): -0.0295 ± 0.005
[5]; 20000 nM
  level (log10): -0.094 ± 0.018
[6]; 6700 nM
  level (log10): -0.0165 ± 0.016
[6]; 20000 nM
  level (log10): -0.0185 ± 0.00071
[6]; 60000 nM
  level (log10): -0.087 ± 0.017
[7]; 6700 nM
  level (log10): 0.084 ± 0.0014
[7]; 20000 nM
  level (log10): 0.064 ± 0.018
[7]; 60000 nM
  level (log10): -0.0155 ± 0.035

## HDF3CGF:Collagen I
[1]; 6700 nM
  level (log10): -0.03 ± 0.014
[1]; 20000 nM
  level (log10): -0.0385 ± 0.0078
[1]; 60000 nM
  level (log10): 0.0105 ± 0.071
[2]; 6700 nM
  level (log10): 0.0215 ± 0.0064
[2]; 20000 nM
  level (log10): -0.0125 ± 0.0092
[2]; 60000 nM
  level (log10): -0.0295 ± 0.061
[3]; 6700 nM
  level (log10): -0.035 ± 0.033
[3]; 20000 nM
  level (log10): 0.02 ± 0.025
[3]; 60000 nM
  level (log10): -0.0035 ± 0.054
[4]; 6700 nM
  level (log10): 0.0175 ± 0.037
[4]; 20000 nM
  level (log10): -0.003 ± 0.025
[4]; 60000 nM
  level (log10): 0.0345 ± 0.043
[5]; 6700 nM
  level (log10): 0.0105 ± 0.042
[5]; 20000 nM
  level (log10): -0.011 ± 0.058
[6]; 6700 nM
  level (log10): 0.0175 ± 0.033
[6]; 20000 nM
  level (log10): 0.0045 ± 0.026
[6]; 60000 nM
  level (log10): 0.0065 ± 0.042
[7]; 6700 nM
  level (log10): -0.041
[7]; 20000 nM
  level (log10): -0.116 ± 0.015
[7]; 60000 nM
  level (log10): -0.148 ± 0.1
